# Measured values published in PubChem BioAssay AID1259407 (Chemical Carcinogenesis Research Information System (CCRIS), 2018).
# Calls of active or inactive are those of the source. The rule behind the calls is not given here.
# Tested on: CCRIS mutagenicity, Ames/micronucleus/aberration tests
# Assay: CCRIS mutagenicity studies
# [1] = Test System: AMES SALMONELLA TYPHIMURIUM, Strain/Indicator: TA98, Metabolic Activation: NONE, Method: STANDARD PLATE
# [2] = Test System: AMES SALMONELLA TYPHIMURIUM, Strain/Indicator: TA100, Metabolic Activation: NONE, Method: STANDARD PLATE
# [3] = Test System: AMES SALMONELLA TYPHIMURIUM, Strain/Indicator: TA98, Metabolic Activation: NONE, Method: PREINCUBATION
# [4] = Test System: AMES SALMONELLA TYPHIMURIUM, Strain/Indicator: TA100, Metabolic Activation: NONE, Method: PREINCUBATION
# [5] = Test System: AMES SALMONELLA TYPHIMURIUM, Strain/Indicator: TA1535, Metabolic Activation: NONE, Method: PREINCUBATION
# [6] = Test System: AMES SALMONELLA TYPHIMURIUM, Strain/Indicator: TA1537, Metabolic Activation: NONE, Method: PREINCUBATION
# [7] = Test System: AMES SALMONELLA TYPHIMURIUM, Strain/Indicator: TA1538, Metabolic Activation: RAT, LIVER, S-9, AROCLOR 1254, Method: STANDARD PLATE
structure (smiles),measurement,setting,value
CC(N)=O,mutagenic call,"End Point: IN VIVO MICRONUCLEUS, Test System: BLOOD ERYTHROCYTES, Species: MOUSE, Strain/Sex: CD-1/MALE, Route: INTRAPERITONEAL INJECTION",inactive; negative
same,mutagenic call,[1],inactive; negative
same,mutagenic call,"Test System: AMES SALMONELLA TYPHIMURIUM, Strain/Indicator: TA98, Metabolic Activation: RAT, LIVER, S-9, Method: STANDARD PLATE",inactive; negative
same,mutagenic call,[2],inactive; negative
same,mutagenic call,"Test System: AMES SALMONELLA TYPHIMURIUM, Strain/Indicator: TA100, Metabolic Activation: RAT, LIVER, S-9, Method: STANDARD PLATE",inactive; negative
same,mutagenic call,"Test System: Ames Salmonella typhimurium, Strain/Indicator: YG7108pin3ERb5, Metabolic Activation: None, Method: Standard plate",inactive; negative
CC(C)(C)c1ccc(-c2ccc(N=O)cc2)cc1,mutagenic call,[1],active; positive
same,mutagenic call,"Test System: AMES SALMONELLA TYPHIMURIUM, Strain/Indicator: TA98, Metabolic Activation: S-9, Method: STANDARD PLATE",active; positive
same,mutagenic call,[2],active; positive
same,mutagenic call,"Test System: AMES SALMONELLA TYPHIMURIUM, Strain/Indicator: TA100, Metabolic Activation: S-9, Method: STANDARD PLATE",active; positive
CN(C)c1ccc([C@H]2C[C@]3(C)[C@@H](CC[C@]3(O)CCCO)[C@@H]3CCC4=CC(=O)CCC4=C32)cc1,mutagenic call,"End Point: IN VITRO CHROMOSOMAL ABERRATIONS, Test System: HUMAN PERIPHERAL LYMPHOCYTES, Metabolic Activation: NONE",inactive; negative
same,mutagenic call,"End Point: IN VITRO CHROMOSOMAL ABERRATIONS, Test System: HUMAN PERIPHERAL LYMPHOCYTES, Metabolic Activation: RAT, LIVER, S-9, AROCLOR 1254",inactive; negative
same,mutagenic call,"End Point: IN VIVO MICRONUCLEUS, Test System: BONE MARROW POLYCHROMATIC ERYTHROCYTES, Species: MOUSE, Strain/Sex: NMRI/MALE, FEMALE, Route: INTRAGASTRIC",inactive; negative
same,mutagenic call,[3],inactive; negative
same,mutagenic call,[1],inactive; negative
same,mutagenic call,"Test System: AMES SALMONELLA TYPHIMURIUM, Strain/Indicator: TA98, Metabolic Activation: RAT, LIVER, S-9, AROCLOR 1254, Method: PREINCUBATION",inactive; negative
same,mutagenic call,"Test System: AMES SALMONELLA TYPHIMURIUM, Strain/Indicator: TA98, Metabolic Activation: RAT, LIVER, S-9, AROCLOR 1254, Method: STANDARD PLATE",inactive; negative
same,mutagenic call,[4],inactive; negative
same,mutagenic call,[2],inactive; negative
same,mutagenic call,"Test System: AMES SALMONELLA TYPHIMURIUM, Strain/Indicator: TA100, Metabolic Activation: RAT, LIVER, S-9, AROCLOR 1254, Method: PREINCUBATION",inactive; negative
same,mutagenic call,"Test System: AMES SALMONELLA TYPHIMURIUM, Strain/Indicator: TA100, Metabolic Activation: RAT, LIVER, S-9, AROCLOR 1254, Method: STANDARD PLATE",inactive; negative
same,mutagenic call,[5],inactive; negative
same,mutagenic call,"Test System: AMES SALMONELLA TYPHIMURIUM, Strain/Indicator: TA1535, Metabolic Activation: NONE, Method: STANDARD PLATE",inactive; negative
same,mutagenic call,"Test System: AMES SALMONELLA TYPHIMURIUM, Strain/Indicator: TA1535, Metabolic Activation: RAT, LIVER, S-9, AROCLOR 1254, Method: PREINCUBATION",inactive; negative
same,mutagenic call,"Test System: AMES SALMONELLA TYPHIMURIUM, Strain/Indicator: TA1535, Metabolic Activation: RAT, LIVER, S-9, AROCLOR 1254, Method: STANDARD PLATE",inactive; negative
same,mutagenic call,[6],inactive; negative
same,mutagenic call,"Test System: AMES SALMONELLA TYPHIMURIUM, Strain/Indicator: TA1537, Metabolic Activation: NONE, Method: STANDARD PLATE",inactive; negative
same,mutagenic call,"Test System: AMES SALMONELLA TYPHIMURIUM, Strain/Indicator: TA1537, Metabolic Activation: RAT, LIVER, S-9, AROCLOR 1254, Method: PREINCUBATION",inactive; negative
same,mutagenic call,"Test System: AMES SALMONELLA TYPHIMURIUM, Strain/Indicator: TA1537, Metabolic Activation: RAT, LIVER, S-9, AROCLOR 1254, Method: STANDARD PLATE",inactive; negative
same,mutagenic call,"Test System: AMES SALMONELLA TYPHIMURIUM, Strain/Indicator: TA1538, Metabolic Activation: NONE, Method: PREINCUBATION",inactive; negative
same,mutagenic call,"Test System: AMES SALMONELLA TYPHIMURIUM, Strain/Indicator: TA1538, Metabolic Activation: NONE, Method: STANDARD PLATE",inactive; negative
same,mutagenic call,"Test System: AMES SALMONELLA TYPHIMURIUM, Strain/Indicator: TA1538, Metabolic Activation: RAT, LIVER, S-9, AROCLOR 1254, Method: PREINCUBATION",inactive; negative
same,mutagenic call,[7],inactive; negative
same,mutagenic call,"Test System: CHINESE HAMSTER V-79, Strain/Indicator: V-79 (HGPRT)/6-THIOGUANINE, Metabolic Activation: NONE",inactive; negative
same,mutagenic call,"Test System: CHINESE HAMSTER V-79, Strain/Indicator: V-79 (HGPRT)/6-THIOGUANINE, Metabolic Activation: RAT, LIVER, S-9, AROCLOR 1254",inactive; negative
CCn1cc(C(=O)O)c(=O)c2cc3c(cc21)OCO3,mutagenic call,"Test System: AMES SALMONELLA TYPHIMURIUM, Strain/Indicator: TA102, Metabolic Activation: NONE, Method: STANDARD PLATE",active; positive
same,mutagenic call,"Test System: AMES SALMONELLA TYPHIMURIUM, Strain/Indicator: TA2638, Metabolic Activation: NONE, Method: STANDARD PLATE",active; positive
same,mutagenic call,"Test System: E. COLI, Strain/Indicator: WP2 (PKM101), Metabolic Activation: NONE, Method: STANDARD PLATE",active; positive
same,mutagenic call,"Test System: E. COLI, Strain/Indicator: WP2 UVRA (PKM101), Metabolic Activation: NONE, Method: STANDARD PLATE",active; positive
Nc1c(N=Nc2ccc(-c3ccc(N=Nc4cc(S(=O)(=O)O)c5ccccc5c4N)cc3)cc2)cc(S(=O)(=O)O)c2ccccc12,mutagenic call,"Test System: AMES SALMONELLA TYPHIMURIUM, Strain/Indicator: TA98, Metabolic Activation: HAMSTER, LIVER, S-9, Method: PREINCUBATION (PRIVAL METHOD)",active; positive
same,mutagenic call,[1],inactive; negative
same,mutagenic call,"Test System: AMES SALMONELLA TYPHIMURIUM, Strain/Indicator: TA98, Metabolic Activation: RAT, LIVER, S-9, PHENOBARBITAL, Method: STANDARD PLATE",inactive; negative
same,mutagenic call,[2],active; positive
same,mutagenic call,"Test System: AMES SALMONELLA TYPHIMURIUM, Strain/Indicator: TA100, Metabolic Activation: RAT, LIVER, S-9, PHENOBARBITAL, Method: STANDARD PLATE",inactive; negative
same,mutagenic call,"Test System: AMES SALMONELLA TYPHIMURIUM, Strain/Indicator: TA1538, Metabolic Activation: HAMSTER, LIVER, S-9, Method: STANDARD PLATE",inactive; negative
same,mutagenic call,[7],inactive; negative
same,mutagenic call,"Test System: Ames Salmonella typhimurium, Strain/Indicator: TA98, Metabolic Activation: Rat, Liver, S-9, Sodium phenobarbitone, Method: Preincubation","inactive; negative, test conducted under both aerobic and anaerobic conditions."
same,mutagenic call,"Test System: Ames Salmonella typhimurium, Strain/Indicator: TA1538, Metabolic Activation: Rat, Liver, S-9, Sodium phenobarbitone, Method: Preincubation","inactive; negative, test conducted under both aerobic and anaerobic conditions."
CCCCCCCCCCCCCOC(=O)c1ccccc1C(=O)OCCCCCCCCCCCCC,mutagenic call,"Test System: AMES SALMONELLA TYPHIMURIUM, Strain/Indicator: TA98, Metabolic Activation: HAMSTER, LIVER, S-9, AROCLOR 1254 (10%), Method: PREINCUBATION",inactive; negative
same,mutagenic call,[3],inactive; negative
same,mutagenic call,"Test System: AMES SALMONELLA TYPHIMURIUM, Strain/Indicator: TA98, Metabolic Activation: RAT, LIVER, S-9, AROCLOR 1254 (10%), Method: PREINCUBATION",inactive; negative
same,mutagenic call,"Test System: AMES SALMONELLA TYPHIMURIUM, Strain/Indicator: TA100, Metabolic Activation: HAMSTER, LIVER, S-9, AROCLOR 1254 (10%), Method: PREINCUBATION",inactive; negative
same,mutagenic call,[4],inactive; negative
same,mutagenic call,"Test System: AMES SALMONELLA TYPHIMURIUM, Strain/Indicator: TA100, Metabolic Activation: RAT, LIVER, S-9, AROCLOR 1254 (10%), Method: PREINCUBATION",inactive; negative
same,mutagenic call,"Test System: AMES SALMONELLA TYPHIMURIUM, Strain/Indicator: TA1535, Metabolic Activation: HAMSTER, LIVER, S-9, AROCLOR 1254 (10%), Method: PREINCUBATION",inactive; negative
same,mutagenic call,[5],inactive; negative
same,mutagenic call,"Test System: AMES SALMONELLA TYPHIMURIUM, Strain/Indicator: TA1535, Metabolic Activation: RAT, LIVER, S-9, AROCLOR 1254 (10%), Method: PREINCUBATION",inactive; negative
same,mutagenic call,"Test System: AMES SALMONELLA TYPHIMURIUM, Strain/Indicator: TA1537, Metabolic Activation: HAMSTER, LIVER, S-9, AROCLOR 1254 (10%), Method: PREINCUBATION",inactive; negative
same,mutagenic call,[6],inactive; negative
same,mutagenic call,"Test System: AMES SALMONELLA TYPHIMURIUM, Strain/Indicator: TA1537, Metabolic Activation: RAT, LIVER, S-9, AROCLOR 1254 (10%), Method: PREINCUBATION",inactive; negative
